Reference: patent US20260356809A1 (The United States of America, as represented by the …, priority 2022, published 2026)
Read-outs that look alike come from different tables or passages of the source.

Legend:
human D2L receptor = target: T1, human D2L receptor (Homo sapiens, UniProt P14416); experiment: D2R radioligand binding, [3H]N-methylspiperone, HEK293 membranes
T1 construct: expressed in transfected cells

human D3 receptor = target: T2, human D3 receptor (Homo sapiens, UniProt P35462); experiment: D3R radioligand binding, [3H]N-methylspiperone, HEK293 membranes; settings: for D2R Ki / D3R Ki: ratio of Ki values
T2 construct: expressed in transfected cells

5-HT2B [1] = target: T3, 5-HT2B (Homo sapiens, UniProt P41595); experiment: 5-HT2B IP-1, agonist; assay type: cell-based; settings: agonist mode
5-HT2B [2] = target: T3, 5-HT2B; experiment: 5-HT2B IP-1, antagonist; assay type: cell-based
D2LR = target: T4, D2LR (Homo sapiens, UniProt P14416); assay type: cell-based; settings: miniG recruitment assay
T4 construct: expressed in transfected cells; host or cells: HEK 293T, transient

[3] = tested on: cocaine self-administration in rats; settings: general knowledge statement; cited from earlier work
[4] = [3H]N-methylspiperone, mean ± SEM of at least three experiments, read-out: D3R Ki ± SEM

T2 sequence (P35462 whole entry): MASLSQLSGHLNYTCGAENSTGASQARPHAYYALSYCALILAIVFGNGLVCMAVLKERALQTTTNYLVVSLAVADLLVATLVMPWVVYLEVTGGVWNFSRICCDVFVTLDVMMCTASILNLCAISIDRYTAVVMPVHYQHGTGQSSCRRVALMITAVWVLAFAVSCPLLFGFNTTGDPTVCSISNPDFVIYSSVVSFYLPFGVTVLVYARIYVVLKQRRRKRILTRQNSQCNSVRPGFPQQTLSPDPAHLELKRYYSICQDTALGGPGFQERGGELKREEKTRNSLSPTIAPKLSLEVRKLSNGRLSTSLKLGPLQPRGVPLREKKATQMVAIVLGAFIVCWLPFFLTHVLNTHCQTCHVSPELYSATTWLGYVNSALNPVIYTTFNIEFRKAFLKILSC
T1 sequence (P14416 whole entry): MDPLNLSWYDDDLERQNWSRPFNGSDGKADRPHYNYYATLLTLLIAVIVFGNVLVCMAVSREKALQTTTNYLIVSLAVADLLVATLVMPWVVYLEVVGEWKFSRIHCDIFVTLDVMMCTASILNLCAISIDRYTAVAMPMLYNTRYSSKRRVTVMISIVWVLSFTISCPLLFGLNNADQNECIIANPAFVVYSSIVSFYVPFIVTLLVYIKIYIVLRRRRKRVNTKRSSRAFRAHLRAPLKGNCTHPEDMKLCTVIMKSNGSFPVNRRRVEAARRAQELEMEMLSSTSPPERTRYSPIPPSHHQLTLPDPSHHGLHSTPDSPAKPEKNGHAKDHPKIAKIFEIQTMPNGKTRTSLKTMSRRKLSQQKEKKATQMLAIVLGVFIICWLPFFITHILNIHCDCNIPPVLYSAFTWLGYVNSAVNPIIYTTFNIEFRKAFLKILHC
T3 sequence (P41595 whole entry, species assumed): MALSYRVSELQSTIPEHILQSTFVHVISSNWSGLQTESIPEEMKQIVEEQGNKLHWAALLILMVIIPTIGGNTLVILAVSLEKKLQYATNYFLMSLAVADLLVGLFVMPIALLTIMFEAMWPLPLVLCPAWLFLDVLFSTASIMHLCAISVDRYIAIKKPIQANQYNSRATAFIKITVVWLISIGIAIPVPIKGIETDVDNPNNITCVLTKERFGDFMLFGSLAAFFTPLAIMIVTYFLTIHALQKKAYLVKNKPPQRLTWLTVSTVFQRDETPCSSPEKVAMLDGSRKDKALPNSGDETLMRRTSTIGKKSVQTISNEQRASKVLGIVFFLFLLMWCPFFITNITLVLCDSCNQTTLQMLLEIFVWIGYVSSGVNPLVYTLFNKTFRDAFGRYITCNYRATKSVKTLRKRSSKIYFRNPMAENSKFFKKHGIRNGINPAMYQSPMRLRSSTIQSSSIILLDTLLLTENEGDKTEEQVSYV
T4 sequence (P14416 whole entry): as the sequence (P14416 whole entry) above

Molecule	Ki (human D3 receptor) [nM]	D2R Ki / D3R Ki (human D3 receptor; [3H]N-methylspiperone)	Ki (human D2L receptor; read-out: D2R Ki ± SEM) [nM]	Ki (human D3 receptor; [4]) [nM]	further results
COc1ccccc1N1CCN(CC[C@H]2CC[C@H](NC(=O)N(C)C)CC2)CC1 [Compound 6f, 3-(trans-4-(2-(4-(2-Methoxyphenyl)piperazin-1-yl)ethyl)cyclohexyl)-1,1-dimethylurea]	1.01 ± 0.32	6.0	–	–	Ki (human D2L receptor): 6.07 ± 2.32 nM
CN(C)C(=O)N[C@H]1CC[C@H](CCN2CCN(c3ccc(Cl)cc3)CC2)CC1 [Compound 6g, 3-(trans-4-(2-(4-(4-Chlorophenyl)piperazin-1-yl)ethyl)cyclohexyl)-1,1-dimethylurea]	33.8 ± 0.8	–	–	–	Ki (human D2L receptor): 337 ± 24 nM
CN(C)C(=O)N[C@H]1CC[C@H](CCN2CCN(c3ncccn3)CC2)CC1 [Compound 6h, 1,1-Dimethyl-3-(trans-4-(2-(4-(pyrimidin-2-yl)piperazin-1-yl)ethyl)cyclohexyl)urea]	600 ± 136	5.7	–	–	Ki (human D2L receptor): 3440 ± 464 nM
CN(C)C(=O)N[C@H]1CC[C@H](CCN2CCN(c3nsc4ccccc34)CC2)CC1 [Compound 6i, 3-(trans-4-(2-(4-(Benzo[d]isothiazol-3-yl)piperazin-1-yl)ethyl)cyclohexyl)-1,1-dimethylurea]	4.17 ± 0.33	1.1	–	–	Ki (human D2L receptor): 4.43 ± 0.38 nM
CN(C)C(=O)N[C@H]1CC[C@H](CCN2CCC(c3noc4cc(F)ccc34)CC2)CC1 [Compound 6j, 3-(trans-4-(2-(4-(6-Fluorobenzo[d]isoxazol-3-yl)piperidin-1-yl)ethyl)cyclohexyl)-1,1-dimethylurea]	5.37 ± 0.72	1.0	–	–	Ki (human D2L receptor): 5.26 ± 1.56 nM
CN(C)C(=O)N[C@H]1CC[C@H](CCN2CCN(c3ccc4oc(C(N)=O)cc4c3)CC2)CC1 [Compound 6k, 5-(4-(2-(trans-4-(3,3-Dimethylureido)cyclohexyl)ethyl)piperazin-1-yl)benzofuran-2-carboxamide]	1460 ± 270	41.9	–	–	Ki (human D2L receptor): 61100 ± 35100 nM
CCc1cccc(N2CCN(CC[C@H]3CC[C@H](NC(=O)c4cc5ccccc5[nH]4)CC3)CC2)c1Cl [Compound 10b, N-(trans-4-(2-(4-(2-Chloro-3-ethylphenyl)piperazin-1-yl)ethyl)cyclohexyl)indole-2-carboxamide]	–	–	7.8 ± 1.9	–	–
COCCC(=O)N[C@H]1CC[C@H](CCN2CCN(c3cccc(C(F)(F)F)n3)CC2)CC1 [Compound 13d]	–	–	–	–	5-HT2B IP-1 Emax ± SEM (5-HT2B [1]): 6.66 ± 0.91%; EC50 (5-HT2B [1]; read-out: 5-HT2B IP-1 EC50 ± SEM): 37 ± 10 nM; 5-HT2B IP-1 Emax ± SEM (5-HT2B [2]): 95.6 ± 2.0%; IC50 (5-HT2B [2]; read-out: 5-HT2B IP-1 IC50 ± SEM): 460 ± 100 nM
COC(=O)N[C@H]1CC[C@H](CCN2CCN(c3cccc(Cl)c3Cl)CC2)CC1 [Compound 14a, Methyl (trans-4-(2-(4-(2,3-dichlorophenyl)piperazin-1-yl)ethyl)cyclohexyl)carbamate]	–	11.5	3.72 ± 0.02	0.323 ± 0.075	–
CCOC(=O)N[C@H]1CC[C@H](CCN2CCN(c3cccc(Cl)c3Cl)CC2)CC1 [Compound 14b, Ethyl (trans-4-(2-(4-(2,3-dichlorophenyl)piperazin-1-yl)ethyl)cyclohexyl)carbamate]	–	–	8.4 ± 2.43	0.965 ± 0.129	–
CCCOC(=O)N[C@H]1CC[C@H](CCN2CCN(c3cccc(Cl)c3Cl)CC2)CC1 [Compound 14c, Propyl (trans-4-(2-(4-(2,3-dichlorophenyl)piperazin-1-yl)ethyl)cyclohexyl)carbamate]	–	14.4	25 ± 2.1	1.74 ± 0.17	–
COCC(=O)N[C@H]1CC[C@H](CCN2CCN(c3cccc(Cl)c3Cl)CC2)CC1 [Compound 14d, N-(trans-4-(2-(4-(2,3-Dichlorophenyl)piperazin-1-yl)ethyl)cyclohexyl)-2-methoxyacetamide]	≤ 1	28.6	7.67 ± 0.69	0.268 ± 0.065	–
CCOCC(=O)N[C@H]1CC[C@H](CCN2CCN(c3cccc(Cl)c3Cl)CC2)CC1 [Compound 14e, N-(trans-4-(2-(4-(2,3-Dichlorophenyl)piperazin-1-yl)ethyl)cyclohexyl)-2-ethoxyacetamide]	≤ 1	–	41.3 ± 3.9	1.06 ± 0.32	–
COCCCC(=O)N[C@H]1CC[C@H](CCN2CCN(c3cccc(Cl)c3Cl)CC2)CC1 [Compound 14f, N-(trans-4-(2-(4-(2,3-Dichlorophenyl)piperazin-1-yl)ethyl)cyclohexyl)-4-methoxybutanamide]	–	18.9	21.7 ± 3.8	1.15 ± 0.29	–
CN(C)CC(=O)N[C@H]1CC[C@H](CCN2CCN(c3cccc(Cl)c3Cl)CC2)CC1 [Compound 14g, N-(trans-4-(2-(4-(2,3-dichlorophenyl)piperazin-1-yl)ethyl)cyclohexyl)-2-(dimethylamino)acetamide]	–	–	3.72 ± 0.46	0.398 ± 0.084	–
CCC(=O)N[C@H]1CC[C@H](CCN2CCN(c3cccc(Cl)c3Cl)CC2)CC1 [Compound 14i, N-(trans-4-(2-(4-(2,3-Dichlorophenyl)piperazin-1-yl)ethyl)cyclohexyl)propionamide]	–	13.6	6.06 ± 1.07	0.447 ± 0.119	–
CCCC(=O)N[C@H]1CC[C@H](CCN2CCN(c3cccc(Cl)c3Cl)CC2)CC1 [Compound 14j, N-(trans-4-(2-(4-(2,3-Dichlorophenyl)piperazin-1-yl)ethyl)cyclohexyl)butyramide]	–	29.3	25.6 ± 5.7	0.875 ± 0.178	–
CCCCC(=O)N[C@H]1CC[C@H](CCN2CCN(c3cccc(Cl)c3Cl)CC2)CC1 [Compound 14k, N-(trans-4-(2-(4-(2,3-Dichlorophenyl)piperazin-1-yl)ethyl)cyclohexyl)pentanamide]	–	21.7	51.5 ± 18.6	2.37 ± 0.6	–
O=C1OCCCN1[C@H]1CC[C@H](CCN2CCN(c3cccc(Cl)c3Cl)CC2)CC1 [Compound 34b, 3-(trans-4-(2-(4-(2,3-Dichlorophenyl)piperazin-1-yl)ethyl)cyclohexyl)-1,3-oxazinan-2-one]	≤ 1	–	5.46 ± 2.14	0.248 ± 0.101	–
O=C1NCCN1[C@H]1CC[C@H](CCN2CCN(c3cccc(Cl)c3Cl)CC2)CC1 [Compound 35a, 1-(trans-4-(2-(4-(2,3-Dichlorophenyl)piperazin-1-yl)ethyl)cyclohexyl)imidazolidin-2-one]	–	12.9	5.66 ± 0.89	0.438 ± 0.053	–
O=C1NCCCN1[C@H]1CC[C@H](CCN2CCN(c3cccc(Cl)c3Cl)CC2)CC1 [Compound 35b, 1-(trans-4-(2-(4-(2,3-Dichlorophenyl)piperazin-1-yl)ethyl)cyclohexyl)tetrahydropyrimidin-2(1H)-one]	–	–	19 ± 4.7	2.97 ± 0.85	–
O=C1CCCN1[C@H]1CC[C@H](CCN2CCN(c3cccc(Cl)c3Cl)CC2)CC1 [Compound 36a, 1-(trans-4-(2-(4-(2,3-Dichlorophenyl)piperazin-1-yl)ethyl)cyclohexyl)100yrrolidine-2-one]	–	–	4.49 ± 0.78	0.537 ± 0.167	–
O=C1CCCCN1[C@H]1CC[C@H](CCN2CCN(c3cccc(Cl)c3Cl)CC2)CC1 [Compound 36b, 1-(trans-4-(2-(4-(2,3-Dichlorophenyl)piperazin-1-yl)ethyl)cyclohexyl)piperidin-2-one]	–	–	9.89 ± 2.77	1.74 ± 0.46	–
NCCc1ccc(O)c(O)c1 [Dopamine, dopamine, reference compound]	–	–	–	–	D2R activity in words, miniG assay (D2LR): equivalent maximal responses
O=c1[nH]c2ccccc2n1C1CCN(CCCC(c2ccc(F)cc2)c2ccc(F)cc2)CC1 [pimozide]	–	–	–	–	biphasic effects on cocaine self-administration [3]: biphasic effects
(+)-butaclamol	–	–	–	–	biphasic effects on cocaine self-administration [3]: biphasic effects
